This is an account of results in patent US20240415869A1, “COMPOSITIONS, SYSTEMS, AND METHODS FOR TREATING CANCER USING TUMOR TREATING FIELDS (TTFIELDS) AND THIOREDOXIN/GLUTATHIONE INHIBITORS” (Novocure GmbH G, priority 2023, published 2024).

For series [1], the system named is cancer cells. As to conditions: piperlongumine combined with erastin; cited from earlier work.
Series [2] concerns the target T1, glutathione peroxidase 4 (GPX4) (Homo sapiens, UniProt P36969).
T1 sequence (P36969 1-197): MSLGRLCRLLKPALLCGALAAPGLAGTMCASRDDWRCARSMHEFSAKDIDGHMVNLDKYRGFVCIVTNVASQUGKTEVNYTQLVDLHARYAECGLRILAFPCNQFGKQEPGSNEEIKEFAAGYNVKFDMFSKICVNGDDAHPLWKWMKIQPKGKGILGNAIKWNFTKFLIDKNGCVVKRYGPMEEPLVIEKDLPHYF
Particulars: selective and covalent inhibitor; cited from earlier work.

In series [3] the test system is glioblastoma stem cells (GSCs). Description: Auranofin plus TTFields in glioblastoma stem cells (Example 2). It is filed as cell-based. Particulars: combined with TTFields. Here is the method: In vitro—To assess the effect of this trimodal therapy, GSCs are exposed to AU (auranofin, 0.50 μM), RT (3 Gy), TTFields, TTFields+AU, TTFields+RT, and the combination of all three treatments (AU+RT+TTFields). The GSCs are assessed for the following: (i) a neurosphere formation assay; (ii) ROS Intracellular levels; (iii) MitoTracker™ assessment of mitochondrial membrane potential; and (iv) TrXR1 and GSH activity assays.
In vivo—To further investigate the effect of ROS-inducing trimodal therapy (RT+AU+TTFields) in vivo, subcutaneous injections of GSCs 1123S and 528 stably transduced with luciferase are performed. GCSs are injected (3×10^5 cells 10 μl) to the right flank of mice. Treatment is started when tumors can be visualized by BLI upon injection of D-luciferin substrate. Blood is collected to monitor potential toxicities. The tumor is exposed to snap-freezing and then processed for WB and for tissue formalin fixation for further IHC analysis of p53, MGMT, and TrxR1-associated genes.

Series [4] concerns glioblastoma stem cells (GSCs). As to conditions: cited from earlier work.
Series [5] concerns GBM cell lines. As to conditions: cited from earlier work.
The test system of series [6] is GSCs and GBM cell lines. As to conditions: lower IC50s for GSCs compared to GBM cell lines; cited from earlier work.
Series [7] has as its system GBM cell lines and GSCs. Particulars: cited from earlier work.
Series [8] concerns the target T2, wild-type human TrxR1 (Homo sapiens, UniProt Q16881).
T2 sequence (Q16881 151-649 limits assumed): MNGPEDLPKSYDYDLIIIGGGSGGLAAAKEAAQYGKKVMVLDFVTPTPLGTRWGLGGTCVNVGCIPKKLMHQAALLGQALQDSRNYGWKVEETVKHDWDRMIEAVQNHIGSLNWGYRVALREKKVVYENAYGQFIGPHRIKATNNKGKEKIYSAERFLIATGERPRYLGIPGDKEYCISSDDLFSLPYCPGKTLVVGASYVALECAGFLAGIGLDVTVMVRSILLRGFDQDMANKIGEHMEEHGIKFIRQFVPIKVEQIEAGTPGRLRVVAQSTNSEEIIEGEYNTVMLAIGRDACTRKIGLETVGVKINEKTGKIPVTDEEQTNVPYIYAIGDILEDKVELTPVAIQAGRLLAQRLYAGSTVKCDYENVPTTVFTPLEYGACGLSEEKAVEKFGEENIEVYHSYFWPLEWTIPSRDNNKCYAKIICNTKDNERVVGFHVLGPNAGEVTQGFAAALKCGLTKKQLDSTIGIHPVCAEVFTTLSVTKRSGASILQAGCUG
Particulars: cited from earlier work.

Series [9] concerns the target T3, glutathione reductase (Homo sapiens, UniProt P00390).
T3 sequence (P00390 44-522): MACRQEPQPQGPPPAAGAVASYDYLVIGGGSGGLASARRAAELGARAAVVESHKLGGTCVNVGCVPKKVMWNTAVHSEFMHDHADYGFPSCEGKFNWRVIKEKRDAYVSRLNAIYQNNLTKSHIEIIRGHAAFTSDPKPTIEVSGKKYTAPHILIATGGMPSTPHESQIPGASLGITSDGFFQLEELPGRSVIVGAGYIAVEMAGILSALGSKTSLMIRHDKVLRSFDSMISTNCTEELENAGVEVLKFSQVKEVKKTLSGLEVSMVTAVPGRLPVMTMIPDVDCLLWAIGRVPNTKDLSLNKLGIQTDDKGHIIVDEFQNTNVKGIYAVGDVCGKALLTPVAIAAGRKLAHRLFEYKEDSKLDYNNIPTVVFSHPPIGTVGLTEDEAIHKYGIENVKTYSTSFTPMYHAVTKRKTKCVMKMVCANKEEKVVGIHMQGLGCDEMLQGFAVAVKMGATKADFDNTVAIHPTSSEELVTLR
As to conditions: irreversible inhibitor; cited from earlier work.

Series [10] has as its target T4, cytosolic thioredoxin reductase 1 (TXNRD1) (Homo sapiens, UniProt Q16881).
T4 sequence (Q16881 151-649 limits assumed): T2 sequence (Q16881 151-649 limits assumed)
Particulars: irreversible inhibitor; cited from earlier work.

In series [11] the test system is mitochondrial toxicity. Particulars: cited from earlier work.

In the case of `COc1cc(/C=C/C(=O)N2CCC=CC2=O)cc(OC)c1OC` [piperlongumine], in series [1], the “effect of combination over either treatment alone” value is “synergistic effect”.
For orientation: EC50 means the concentration at which the effect is half-maximal. Regarding `Cc1onc(C(=O)N2CCN(C(c3ccc(Cl)cc3)c3ccc(Cl)cc3)CC2)c1[N+](=O)[O-]` [ML-210], the EC50 in series [2] was 0.03 µM.
As for `CC(=O)OC[C@H]1O[C@@H]([S-])[C@H](OC(C)=O)[C@@H](OC(C)=O)[C@@H]1OC(C)=O.CCP(CC)CC.[Au+]` [Auranofin], the “effect of combination of Auranofin and TTFields” value in series [3] is listed as “synergistic effect”. The neurosphere formation ability entry in series [4] is recorded as “decreased”. Besides, the clonogenic potential result in [5] is recorded as “decreased”. Besides, the cell survival result in series [6] is given as “decreased”. The “intracellular ROS” value in series [7] (GBM cell lines and GSCs, auranofin alone) was “significantly increases”. Besides, the “ROS, combination with radiation therapy” value in series [7] (GSCs, auranofin with RT) is given as “synergistically increases”.
The IC50 is the concentration needed to halve the response being measured. Regarding `O=c1c2ccccc2[se]n1CCn1[se]c2ccccc2c1=O` [Ethaselen, 1,2-[bis(1,2-benzisoselenazolone-3 (2H)-ketone)]ethane], the IC50 in series [8] is 0.5 µM.
As for `N[C@@H](CCC(=O)N[C@@H](CSc1ccc([N+](=O)[O-])cc1[N+](=O)[O-])C(=O)NCC(=O)O)C(=O)O` [(2,4-Dinitrophenyl)glutathione, S-(2,4-Dinitrophenyl)glutathione], the Ki in [9] is 30 µM.
In the case of `COc1ccc([N+](=O)[O-])c(S(=O)(=O)c2ccc(Cl)cc2)n1` [TRi-1], the IC50 in series [10] is 0.012 µM. Further, in series [11], the mitochondrial toxicity result is recorded as “little mitochondrial toxicity for anticancer therapy”.
